Reference: patent publication US20090304763A1, “Insect Attractant Composition” (priority 2006, published 2009)

Key:
[1] = surface energy of water with added acetone; type: physicochemical; conditions: 5% addition of acetone to water; water alone 73 dynes/cm
Text: While the C3-C12 ketones used in the composition are insufficient by themselves to act as an insect attractant; they provide other valuable properties to the composition. In particular, small-chain ketones have the ability to act as surface-active agents and thus provide the composition with a more consistent droplet diameter and a lower surface energy when the liquid composition is released. For instance, a 5% addition of acetone to water can reduce water surface energy from 73 dynes/cm to 56 dynes/cm. While not wishing to be bound by this theory, it is believed that producing a composition with a consistent and smaller diameter size provides a better presentation to the antennae of the flying insects.

[2] = tested on: mosquitoes; experiment: test comparing acetone alone versus composition: share of available mosquitoes lured; type: in vivo; conditions: one test; acetone alone versus composition containing acetone, lactic acid and the fatty acid

With `CC(C)=O` [acetone alone, acetone] the water surface energy [1] was 56 dynes/cm and the “average of all available mosquitoes lured” value [2] was 6.7%.
